US8414914B2, “Compositions for mucosal delivery of agents” (Virun, Inc., priority 2004, dated 2013)

Experiment: IV study in dogs: plasma insulin and glucose after IV injection of human insulin
Assay type: in vivo, Mongrel dogs
Experimental: Oral bioavailability of insulin composition was determined using an IV study followed by an oral crossover study and the relative areas of under the curve, plasma half life, Cmax, and Tmax was calculated. […] Following data collection, plasma concentration, plasma half-life, peak concentration (Cmax) and time to reach Cmax (tmax) were determined. From the areas under the curve, percent oral bioavailability was determined.

[1] = dog #71, IV 0.01 mg/kg, 120 min
[2] = dog #71, IV 0.01 mg/kg, 180 min
[3] = dog #71, IV 0.01 mg/kg, 240 min
[4] = dog #72, IV 0.01 mg/kg, 120 min
[5] = dog #72, IV 0.01 mg/kg, 180 min
[6] = dog #72, IV 0.01 mg/kg, 240 min

What does the source list for “human insulin: human insulin given by IV injection (0.01 mg/kg) as reference in the dog study”?
Plasma Glucose (dog #71, IV 0.01 mg/kg, 2 min): 89 mg/dL; Plasma Insulin (dog #71, IV 0.01 mg/kg, 2 min): 50.2 ng/mL; Plasma Glucose (dog #71, IV 0.01 mg/kg, 5 min): 82 mg/dL; Plasma Insulin (dog #71, IV 0.01 mg/kg, 5 min): 26.6 ng/mL; Plasma Glucose (dog #71, IV 0.01 mg/kg, 10 min): 57 mg/dL; Plasma Glucose (dog #71, IV 0.01 mg/kg, 15 min): 46 mg/dL; Plasma Insulin (dog #71, IV 0.01 mg/kg, 15 min): 10.1 ng/mL; Plasma Glucose (dog #71, IV 0.01 mg/kg, 20 min): 41 mg/dL; Plasma Glucose (dog #71, IV 0.01 mg/kg, 25 min): 42 mg/dL; Plasma Insulin (dog #71, IV 0.01 mg/kg, 25 min): 5.9 ng/mL; Plasma Glucose (dog #71, IV 0.01 mg/kg, 40 min): 39 mg/dL; Plasma Glucose (dog #71, IV 0.01 mg/kg, 60 min): 48 mg/dL; Plasma Glucose [1]: 69 mg/dL; Plasma Insulin [1]: 0.19 ng/mL; Plasma Glucose [2]: 87 mg/dL; Plasma Insulin [2]: 0.08 ng/mL; Plasma Glucose [3]: 86 mg/dL; Plasma Insulin [3]: 0.08 ng/mL; Plasma Glucose (dog #72, IV 0.01 mg/kg, 2 min): 89 mg/dL; Plasma Insulin (dog #72, IV 0.01 mg/kg, 2 min): 27.3 ng/mL; Plasma Glucose (dog #72, IV 0.01 mg/kg, 5 min): 60 mg/dL; Plasma Insulin (dog #72, IV 0.01 mg/kg, 5 min): 21.4 ng/mL; Plasma Glucose (dog #72, IV 0.01 mg/kg, 10 min): 31 mg/dL; Plasma Glucose (dog #72, IV 0.01 mg/kg, 15 min): 28 mg/dL; Plasma Glucose (dog #72, IV 0.01 mg/kg, 20 min): 35 mg/dL; Plasma Insulin (dog #72, IV 0.01 mg/kg, 20 min): 3.4 ng/mL; Plasma Glucose (dog #72, IV 0.01 mg/kg, 25 min): 24 mg/dL; Plasma Glucose (dog #72, IV 0.01 mg/kg, 40 min): 21 mg/dL; Plasma Insulin (dog #72, IV 0.01 mg/kg, 40 min): 0.7 ng/mL; Plasma Glucose (dog #72, IV 0.01 mg/kg, 60 min): 33 mg/dL; Plasma Insulin (dog #72, IV 0.01 mg/kg, 60 min): 0.2 ng/mL; Plasma Glucose [4]: 68 mg/dL; Plasma Insulin [4]: 0.04 ng/mL; Plasma Glucose [5]: 102 mg/dL; Plasma Insulin [5]: 0 ng/mL; Plasma Glucose [6]: 99 mg/dL; Plasma Insulin [6]: 0.04 ng/mL
